In PubChem BioAssay (NCI):
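Protocol summary: plate cells (96-well), add compound at 5 concentrations, incubate 48 h, interpolate endpoints linearly. TGI: total growth inhibition.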

Assays:
Assay in all cases: NCI anticancer screen, dose series, 48 h
786-0 renal = test system: 786-0 renal
A498 renal = test system: A498 renal
A549 NSCLC = test system: A549 NSCLC
ACHN renal = test system: ACHN renal
CCRF-CEM leukemia = test system: CCRF-CEM leukemia
COLO 205 colon = test system: COLO 205 colon
DLD-1 colon = test system: DLD-1 colon
DMS 114 small cell lung = test system: DMS 114 small cell lung
EKVX NSCLC = test system: EKVX NSCLC
HCC-2998 colon = test system: HCC-2998 colon
HCT-116 colon = test system: HCT-116 colon
HCT-15 colon = test system: HCT-15 colon
HL-60(TB) leukemia = test system: HL-60(TB) leukemia
HOP-18 NSCLC = test system: HOP-18 NSCLC
HOP-62 NSCLC = test system: HOP-62 NSCLC
HOP-92 NSCLC = test system: HOP-92 NSCLC
HT29 colon = test system: HT29 colon
IGROV1 ovarian = test system: IGROV1 ovarian
K-562 leukemia = test system: K-562 leukemia
KM12 colon = test system: KM12 colon
KM20L2 colon = test system: KM20L2 colon
LOX IMVI melanoma = test system: LOX IMVI melanoma
LXFL 529 NSCLC = test system: LXFL 529 NSCLC
M14 melanoma = test system: M14 melanoma
M19-MEL melanoma = test system: M19-MEL melanoma
MALME-3M melanoma = test system: MALME-3M melanoma
MOLT-4 leukemia = test system: MOLT-4 leukemia
NCI-H226 lung = test system: NCI-H226 lung
NCI-H23 lung = test system: NCI-H23 lung
NCI-H460 lung = test system: NCI-H460 lung
NCI-H522 lung = test system: NCI-H522 lung
OVCAR-3 ovarian = test system: OVCAR-3 ovarian
OVCAR-4 ovarian = test system: OVCAR-4 ovarian
OVCAR-5 ovarian = test system: OVCAR-5 ovarian
OVCAR-8 ovarian = test system: OVCAR-8 ovarian
RPMI-8226 leukemia = test system: RPMI-8226 leukemia
RXF 393 renal = test system: RXF 393 renal
RXF-631 renal = test system: RXF-631 renal
SF-268 CNS = test system: SF-268 CNS
SF-295 CNS = test system: SF-295 CNS
SF-539 CNS = test system: SF-539 CNS
SK-MEL-2 melanoma = test system: SK-MEL-2 melanoma
SK-MEL-28 melanoma = test system: SK-MEL-28 melanoma
SK-OV-3 ovarian = test system: SK-OV-3 ovarian
SN12C renal = test system: SN12C renal
SNB-19 CNS = test system: SNB-19 CNS
SNB-75 CNS = test system: SNB-75 CNS
SNB-78 CNS = test system: SNB-78 CNS
SW-620 colon = test system: SW-620 colon
TK-10 renal = test system: TK-10 renal
U251 CNS = test system: U251 CNS
UACC-257 melanoma = test system: UACC-257 melanoma
UACC-62 melanoma = test system: UACC-62 melanoma
UO-31 renal = test system: UO-31 renal
XF 498 CNS = test system: XF 498 CNS
DMS 273 small cell lung = test system: DMS 273 small cell lung
SK-MEL-5 melanoma = test system: SK-MEL-5 melanoma
CAKI-1 renal = test system: CAKI-1 renal

In the case of `CC1=C(C(=O)Nc2ccc([N+](=O)[O-])cc2)C(c2cccc([N+](=O)[O-])c2)C(C(=O)Nc2ccc([N+](=O)[O-])cc2)=C(C)N1`, the TGI (786-0 renal) is reported as > 100 µM, the TGI (A498 renal) is reported as > 100 µM and the TGI (A549 NSCLC) is reported as > 100 µM. The TGI (ACHN renal) was > 100 µM, the TGI (CCRF-CEM leukemia) was > 100 µM and the TGI (COLO 205 colon) was > 100 µM. The TGI (DLD-1 colon) was > 100 µM, the TGI (DMS 114 small cell lung) was > 100 µM and the TGI (EKVX NSCLC) was > 100 µM. The TGI (HCC-2998 colon) was > 100 µM, the TGI (HCT-116 colon) was > 100 µM and the TGI (HCT-15 colon) was > 100 µM. The TGI (HL-60(TB) leukemia) was > 100 µM, the TGI (HOP-18 NSCLC) was > 100 µM and the TGI (HOP-62 NSCLC) was > 100 µM. The TGI (HOP-92 NSCLC) was 39 µM, the TGI (HT29 colon) was > 100 µM and the TGI (IGROV1 ovarian) was > 100 µM. For the same compound, the TGI (K-562 leukemia) was > 100 µM, the TGI (KM12 colon) was > 100 µM and the TGI (KM20L2 colon) was > 100 µM. For the same compound, the TGI (LOX IMVI melanoma) was > 100 µM, the TGI (LXFL 529 NSCLC) was > 100 µM and the TGI (M14 melanoma) was > 100 µM. For the same compound, the TGI (M19-MEL melanoma) was > 100 µM, the TGI (MALME-3M melanoma) was > 100 µM and the TGI (MOLT-4 leukemia) was > 100 µM. For the same compound, the TGI (NCI-H226 lung) was > 100 µM, the TGI (NCI-H23 lung) was 66.4 µM and the TGI (NCI-H460 lung) was > 100 µM. The TGI (NCI-H522 lung) was > 100 µM, the TGI (OVCAR-3 ovarian) was > 100 µM and the TGI (OVCAR-4 ovarian) was > 100 µM. The TGI (OVCAR-5 ovarian) was > 100 µM, the TGI (OVCAR-8 ovarian) was > 100 µM and the TGI (RPMI-8226 leukemia) was > 100 µM. For the same compound, the TGI (RXF 393 renal) was > 100 µM, the TGI (RXF-631 renal) was > 100 µM and the TGI (SF-268 CNS) was > 100 µM. For the same compound, the TGI (SF-295 CNS) was > 100 µM, the TGI (SF-539 CNS) was > 100 µM and the TGI (SK-MEL-2 melanoma) was > 100 µM. The TGI (SK-MEL-28 melanoma) was > 100 µM, the TGI (SK-OV-3 ovarian) was 71.6 µM and the TGI (SN12C renal) was > 100 µM. For the same compound, the TGI (SNB-19 CNS) was > 100 µM, the TGI (SNB-75 CNS) was > 100 µM and the TGI (SNB-78 CNS) was > 100 µM. For the same compound, the TGI (SW-620 colon) was > 100 µM, the TGI (TK-10 renal) was > 100 µM and the TGI (U251 CNS) was > 100 µM. The TGI (UACC-257 melanoma) was 56.1 µM, the TGI (UACC-62 melanoma) was > 100 µM and the TGI (UO-31 renal) was > 100 µM. The TGI (XF 498 CNS) was 41.3 µM.
With `COc1ccc2c(c1)C1C(CO2)C(c2ccccc2)=NN1c1ccccc1` (centres undefined) the TGI (786-0 renal) was > 100 µM, the TGI (A498 renal) was > 100 µM and the TGI (A549 NSCLC) was > 100 µM. For the same compound, the TGI (ACHN renal) was > 100 µM, the TGI (CCRF-CEM leukemia) was > 100 µM and the TGI (COLO 205 colon) was > 100 µM. For the same compound, the TGI (DLD-1 colon) was > 100 µM, the TGI (DMS 114 small cell lung) was > 100 µM and the TGI (DMS 273 small cell lung) was > 100 µM. The TGI (EKVX NSCLC) was > 100 µM, the TGI (HCC-2998 colon) was > 100 µM and the TGI (HCT-116 colon) was > 100 µM. The TGI (HL-60(TB) leukemia) was > 100 µM, the TGI (HOP-18 NSCLC) was > 100 µM and the TGI (HOP-62 NSCLC) was > 100 µM. The TGI (HOP-92 NSCLC) was > 100 µM, the TGI (HT29 colon) was > 100 µM and the TGI (IGROV1 ovarian) was > 100 µM. The TGI (K-562 leukemia) was > 100 µM, the TGI (KM12 colon) was > 100 µM and the TGI (KM20L2 colon) was > 100 µM. For the same compound, the TGI (LOX IMVI melanoma) was > 100 µM, the TGI (LXFL 529 NSCLC) was > 100 µM and the TGI (M19-MEL melanoma) was > 100 µM. For the same compound, the TGI (MALME-3M melanoma) was > 100 µM, the TGI (MOLT-4 leukemia) was > 100 µM and the TGI (NCI-H23 lung) was > 100 µM. The TGI (NCI-H460 lung) was > 100 µM, the TGI (NCI-H522 lung) was > 100 µM and the TGI (OVCAR-3 ovarian) was > 100 µM. For the same compound, the TGI (OVCAR-5 ovarian) was > 100 µM, the TGI (OVCAR-8 ovarian) was > 100 µM and the TGI (RPMI-8226 leukemia) was > 100 µM. The TGI (RXF 393 renal) was > 100 µM, the TGI (RXF-631 renal) was > 100 µM and the TGI (SF-268 CNS) was > 100 µM. For the same compound, the TGI (SF-295 CNS) was > 100 µM, the TGI (SF-539 CNS) was > 100 µM and the TGI (SK-MEL-2 melanoma) was > 100 µM. The TGI (SK-MEL-28 melanoma) was > 100 µM, the TGI (SK-MEL-5 melanoma) was > 100 µM and the TGI (SK-OV-3 ovarian) was > 100 µM. The TGI (SNB-75 CNS) was 9.67 µM, the TGI (SNB-78 CNS) was > 100 µM and the TGI (SW-620 colon) was > 100 µM. The TGI (TK-10 renal) was > 100 µM, the TGI (U251 CNS) was > 100 µM and the TGI (UACC-257 melanoma) was > 100 µM. The TGI (UO-31 renal) was > 100 µM and the TGI (XF 498 CNS) was > 100 µM.
For `Sc1ccccc1S`, the TGI (786-0 renal) was > 100 µM, the TGI (A549 NSCLC) was > 100 µM and the TGI (ACHN renal) was > 100 µM. For the same compound, the TGI (CAKI-1 renal) was > 100 µM, the TGI (COLO 205 colon) was > 100 µM and the TGI (DLD-1 colon) was > 100 µM. For the same compound, the TGI (DMS 114 small cell lung) was > 100 µM, the TGI (DMS 273 small cell lung) was > 100 µM and the TGI (EKVX NSCLC) was > 10 µM. For the same compound, the TGI (HCC-2998 colon) was > 100 µM, the TGI (HCT-15 colon) was > 100 µM and the TGI (HL-60(TB) leukemia) was > 100 µM. For the same compound, the TGI (HOP-18 NSCLC) was > 100 µM, the TGI (HOP-62 NSCLC) was > 100 µM and the TGI (HOP-92 NSCLC) was > 100 µM. The TGI (HT29 colon) was > 100 µM, the TGI (IGROV1 ovarian) was > 100 µM and the TGI (K-562 leukemia) was > 100 µM. For the same compound, the TGI (KM20L2 colon) was > 100 µM, the TGI (LOX IMVI melanoma) was > 100 µM and the TGI (LXFL 529 NSCLC) was > 100 µM. The TGI (M14 melanoma) was > 100 µM, the TGI (M19-MEL melanoma) was > 100 µM and the TGI (MALME-3M melanoma) was > 100 µM. The TGI (NCI-H23 lung) was > 100 µM, the TGI (NCI-H460 lung) was > 100 µM and the TGI (OVCAR-3 ovarian) was > 100 µM. For the same compound, the TGI (OVCAR-4 ovarian) was > 100 µM, the TGI (OVCAR-8 ovarian) was > 10 µM and the TGI (RXF 393 renal) was > 100 µM. For the same compound, the TGI (RXF-631 renal) was > 100 µM, the TGI (SF-268 CNS) was > 100 µM and the TGI (SF-295 CNS) was > 100 µM. The TGI (SK-MEL-28 melanoma) was > 100 µM, the TGI (SK-OV-3 ovarian) was > 100 µM and the TGI (SN12C renal) was > 100 µM. The TGI (SNB-19 CNS) was > 100 µM, the TGI (SNB-78 CNS) was > 100 µM and the TGI (SW-620 colon) was > 100 µM. The TGI (TK-10 renal) was > 10 µM, the TGI (U251 CNS) was > 100 µM and the TGI (UACC-62 melanoma) was > 100 µM. The TGI (UO-31 renal) was > 10 µM and the TGI (XF 498 CNS) was > 100 µM.
